Earlier results on five compounds are cited in patent publication US20160231323A1, “PROTECTION OF TCR SIGNALING CHAINS IN CANCER PATIENTS AND ENHANCEMENT OF CAR-T CELL THERAPY” (Batu Biologics, Inc., priority 2015, published 2016).

The subject of data set [1] is constitutively activated neutrophils.
For another data set, the system named is Kaposi Sarcoma. The note with it: oral administration.
The subject of data set [2] is sepsis-induced immune suppression. Particulars: animals undergoing experimental sepsis.
Data set [3] has as its system markers of oxidative stress. Particulars: smokers.
The next data set relates to plasma CRP. The note with it: 1000 mg/day for 2 months, healthy nonsmokers, versus vitamin E or placebo.
The subject of a further data set is tumors. Particulars: paradoxical oxidative mechanism.
The next data set concerns HIF-1 alpha. Particulars: results in suppressed angiogenic activity.
The subject of data set [4] is CD8(+) effector and effector memory T cells. The note with it: mice given vitamin C treated DC loaded with tumor lysate.
The subject of data set [5] is proliferating tumor endothelial cells.
The next data set concerns PGE 2. The note with it: several animal models.
In a further data set the test system is TCR-ζ. Particulars: addition to co-incubation of cancer patient neutrophils with healthy lymphocytes.
The test system of data set [6] is IFN-[…] and IL-2 production. The note with it: daily dose of 750 mg for 2 weeks, Duke's C and D colorectal cancer.

With `CC(=O)N[C@@H](CS)C(=O)O` [n-acetylcysteine], the “clinical effect in sepsis” value in [1] (as a monotherapy) is “little clinical effect”. The “constitutively activated neutrophils in sepsis patients” value in data set [1] (therapeutic administration) is reported as “suppression of the constitutively activated neutrophils”. In addition, in the data set on Kaposi Sarcoma, the angiogenesis result was “blocks angiogenesis” and the “growth of Kaposi Sarcoma” value is recorded as “suppresses growth of Kaposi Sarcoma”. The “immune suppression in experimental sepsis” value in data set [2] is on record as “blocked immune suppression”. In data set [3], the “markers of oxidative stress” value is “suppression of markers of oxidative stress”.

As to `O=C1O[C@H]([C@@H](O)CO)C(O)=C1O` [ascorbic acid], the “plasma CRP levels” value with plasma CRP is “statistically significant decrease”. For the same compound, the effect on tumors result in the data set with tumors is on record as “direct killing effect”. The “tumor expression of HIF-1 alpha” value in the data set on HIF-1 alpha is given as “reduce tumor expression of HIF-1 alpha”. Further, in data set [2], the “immune suppression in experimental sepsis” value is given as “blocked immune suppression”. In addition, the “frequency of effector and effector memory T cells” value in data set [4] (versus control DC) was “higher frequency”. Also, the “ex vivo killing of tumor cells by the T cells” value in data set [4] (versus controls) is on record as “increased ex vivo killing effect”. For the same compound, the “effect on proliferating tumor endothelial cells” value in data set [5] is reported as “Direct suppression”.

Consider `COc1ccc2c(c1)c(CC(=O)O)c(C)n2C(=O)c1ccc(Cl)cc1` [indomethacin], for which, in the data set with PGE 2, the metastatic progression entry is “significantly impedes metastatic progession”.

With catalase, the TCR-ζ downregulation entry with TCR-ζ is listed as “suppressed TCR-ζ downregulation”.

For vitamin E, the “IFN-[…] and IL-2 production” value in data set [6] is “restoration of IFN-[…] and IL-2 production”.
